Assay results: patent US20250108038A1 (priority 2023, published 2025)
Values joined by “and” are separate entries in the source; they are usually repeats but may differ in a detail not shown here. Equal entries are not always repeated.

Experiment: Pharmacokinetics after single oral administration to beagle dogs;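 as to AUC0-inf of Compound A (as titled): compound A is measured in plasma as a metabolite of the dosed analog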;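 as to AUC0-last of Compound A (as titled): compound A is measured in plasma as a metabolite of the dosed analog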;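 as to T1/2 of Compound A (as titled): compound A is measured in plasma as a metabolite of the dosed analog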;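 as to Tlast of Compound A (as titled): compound A is measured in plasma as a metabolite of the dosed analog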
Assay type: in vivo
Method: The concentrations of the analytes in the plasma were quantified by liquid chromatography tandem mass spectrometry (LC-MS/MS).
The bioanalytical assay provided a lower limit of quantification (LLOQ) of 1.0 ng/mL and an upper limit of quantification (ULOQ) of 3000 ng/mL for all the analytes. The data of plasma concentration vs. time were analyzed using Phoenix WinNonlin 8.3 to determine the PK properties of the analytes.
The test articles were administered orally by gavage. The nominal dose volume was 5 mL/kg for both analogs.
The observation included appearance, behavior, morbidity and mortality.
Approximately 0.5 mL blood was collected at each scheduled time point from the peripheral veins.
The plasma samples were placed in microcentrifuge tubes and stored at −70+10° C. until analysis.

[1] = after single PO 10 mg/kg of Compound I-17/I-19, female individual
[2] = after single PO 10 mg/kg of Compound I-17/I-19, female individual, 10 mg/kg
[3] = after single PO 10 mg/kg of Compound I-17/I-19, female mean
[4] = after single PO 10 mg/kg of Compound I-17/I-19, male individual, 10 mg/kg
[5] = after single PO 10 mg/kg of Compound I-17/I-19, male mean
[6] = after single PO 80 mg/kg (so in the source) of Compound I-17/I-19, female individual, 80 mg/kg
[7] = after single PO 80 mg/kg (so in the source) of Compound I-17/I-19, female mean
[8] = after single PO 80 mg/kg (so in the source) of Compound I-17/I-19, female mean, 80 mg/kg
[9] = after single PO 80 mg/kg (so in the source) of Compound I-17/I-19, male individual
[10] = after single PO 80 mg/kg (so in the source) of Compound I-17/I-19, male individual, 80 mg/kg
[11] = after single PO 80 mg/kg (so in the source) of Compound I-17/I-19, male mean

SMILES: CC(C)/C=C/COC1(c2ccc(Cl)cc2)c2ccccc2C2=NCCN21 (stereo not drawn) [Compound I-17]
- T1/2 of Compound A (as titled) [1]: 5.87 h
- Tlast of Compound A (as titled) [1]: 24.0 h
- AUC0-inf of Compound A (as titled) [2]: 756 ng·h/mL and 946 ng·h/mL
- AUC0-last of Compound A (as titled) [2]: 736 ng·h/mL and 915 ng·h/mL
- Cmax of Compound A (as titled) [2]: 293 ng/mL and 252 ng/mL
- MRT0-inf of Compound A (as titled) [2]: 4.62 h and 5.07 h
- MRT0-last of Compound A (as titled) [2]: 3.88 h and 4.14 h
- T1/2 of Compound A (as titled) [2]: 6.33 h
- Tmax of Compound A (as titled) [2]: 1.00 h and 2.00 h
- AUC0-inf of Compound A (as titled) [3]: 851 ng·h/mL
- AUC0-last of Compound A (as titled) [3]: 826 ng·h/mL
- Cmax of Compound A (as titled) [3]: 272 ng/mL
- MRT0-inf of Compound A (as titled) [3]: 4.84 h
- MRT0-last of Compound A (as titled) [3]: 4.01 h
- T1/2 of Compound A (as titled) [3]: 6.10 h
- Tlast of Compound A (as titled) [3]: 24.0 h
- Tmax of Compound A (as titled) [3]: 1.50 h
- Tmax of Compound A (as titled) (after single PO 10 mg/kg of Compound I-17/I-19, male individual): 1.00 h
- AUC0-inf of Compound A (as titled) [4]: 229 ng·h/mL and 522 ng·h/mL
- AUC0-last of Compound A (as titled) [4]: 209 ng·h/mL and 513 ng·h/mL
- Cmax of Compound A (as titled) [4]: 89.0 ng/mL and 212 ng/mL
- MRT0-inf of Compound A (as titled) [4]: 3.07 h and 3.86 h
- MRT0-last of Compound A (as titled) [4]: 2.15 h and 3.33 h
- T1/2 of Compound A (as titled) [4]: 3.08 h and 5.70 h
- Tlast of Compound A (as titled) [4]: 8.00 h and 24.0 h
- AUC0-inf of Compound A (as titled) [5]: 376 ng·h/mL
- AUC0-last of Compound A (as titled) [5]: 361 ng·h/mL
- Cmax of Compound A (as titled) [5]: 151 ng/mL
- MRT0-inf of Compound A (as titled) [5]: 3.46 h
- MRT0-last of Compound A (as titled) [5]: 2.74 h
- T1/2 of Compound A (as titled) [5]: 4.39 h
- Tlast of Compound A (as titled) [5]: 16.0 h
- Tmax of Compound A (as titled) [5]: 1.00 h
- T1/2 of Compound A (after single PO 80 mg/kg (so in the source) of Compound I-17/I-19, female individual): 24.0 h
- Cmax of Compound A [6]: 4.00 ng/mL and 2.00 ng/mL
- MRT0-inf of Compound A [6]: 0.989 h and 0.999 h
- MRT0-last of Compound A [6]: 11.2 h and 11.5 h
- Tmax of Compound A [6]: 7.07 h and 7.31 h
- MRT0-inf of Compound A [7]: 0.994 h
- Tlast of Compound A [7]: 323 h
- AUC0-last of Compound A [8]: 323 ng·h/mL
- MRT0-last of Compound A [8]: 11.3 h
- Tlast of Compound A [9]: 24.0 h
- Tmax of Compound A [9]: 2.00 h
- AUC0-inf of Compound A [10]: 278 ng·h/mL and 298 ng·h/mL
- AUC0-last of Compound A [10]: 258 ng·h/mL and 278 ng·h/mL
- Cmax of Compound A [10]: 25.9 ng/mL and 31.6 ng/mL
- MRT0-inf of Compound A [10]: 9.72 h and 9.19 h
- MRT0-last of Compound A [10]: 7.90 h and 7.43 h
- T1/2 of Compound A [10]: 6.33 h and 6.23 h
- AUC0-inf of Compound A [11]: 288 ng·h/mL
- AUC0-last of Compound A [11]: 268 ng·h/mL
- Cmax of Compound A [11]: 28.8 ng/mL
- MRT0-inf of Compound A [11]: 9.45 h
- MRT0-last of Compound A [11]: 7.66 h
- T1/2 of Compound A [11]: 6.28 h
- Tlast of Compound A [11]: 24.0 h
- Tmax of Compound A [11]: 2.00 h
- Cmax of the analog (Compound I-17/I-19) (oral 10 mg/kg, female dogs): 272 ng/mL
- T1/2 of the analog (Compound I-17/I-19) (oral 10 mg/kg, female dogs): 6.10 hours
